Values quoted from earlier work, collected in paper PMC3203620 (The Journal of Organic Chemistry, 2011).

Experiments:
[1] = system: Plasmodium falciparum DXR
[2] = system: P. vinckei
[3] = system: Mt; settings: due to poor uptake

## O=CN(O)CCCP(=O)(O)O [Compound 1, fosmidomycin]
[1]
  inhibition of Plasmodium falciparum DXR in vitro: potent inhibitor
[2]
  activity in vivo in P. vinckei infected mice: potent inhibitor
other
  pharmacokinetic properties: poor pharmacokinetic properties
[3]
  activity on Mt at the whole cell level: inactive
